Where two headings read alike, the source gives them in different places.
What was measured:
[1] = target: Human recombinant DHX9 protein (Homo sapiens (Human), UniProt Q08211); assay: DHX9 ATPase assay (ADP-Glo); type: biochemical; conditions: for IC50: read-out: DHX9 Biochemical Inflection Point
[2] = test system: NCI-H747 cells; assay: DHX9 cellular proliferation assay (CellTiter-Glo), NCI-H747 (CRC-MSS); type: cell-based; conditions: read-out: H747 (CRC-MSS) Antiproliferative
[3] = test system: LS411N cells; assay: DHX9 cellular proliferation assay (CellTiter-Glo), LS411N (CRC-MSI); type: cell-based; conditions: performed at Pharmaron, read-out: LS411N (CRC-MSI-H) Antiproliferative
[4] = test system: circBRIP1 in HCT116 cells; assay: DHX9 circBRIP1 cellular target engagement TaqMan multiplex assay; type: cell-based; conditions: read-out: DHX9 Cellular Target Engagement
[5] = test system: circBRIP1 in HCT116 cells; assay: DHX9 circBRIP1 cellular target engagement SYBR Green assay; type: cell-based
[6] = Homo sapiens, NCI-H747, performed at Pharmaron
[7] = Homo sapiens, HCT-116, Taqman assay (*)
[8] = values marked +, read-out: DHX9 Cellular Target Engagement EC50

Sequence of Human recombinant DHX9 protein (Q08211 whole entry): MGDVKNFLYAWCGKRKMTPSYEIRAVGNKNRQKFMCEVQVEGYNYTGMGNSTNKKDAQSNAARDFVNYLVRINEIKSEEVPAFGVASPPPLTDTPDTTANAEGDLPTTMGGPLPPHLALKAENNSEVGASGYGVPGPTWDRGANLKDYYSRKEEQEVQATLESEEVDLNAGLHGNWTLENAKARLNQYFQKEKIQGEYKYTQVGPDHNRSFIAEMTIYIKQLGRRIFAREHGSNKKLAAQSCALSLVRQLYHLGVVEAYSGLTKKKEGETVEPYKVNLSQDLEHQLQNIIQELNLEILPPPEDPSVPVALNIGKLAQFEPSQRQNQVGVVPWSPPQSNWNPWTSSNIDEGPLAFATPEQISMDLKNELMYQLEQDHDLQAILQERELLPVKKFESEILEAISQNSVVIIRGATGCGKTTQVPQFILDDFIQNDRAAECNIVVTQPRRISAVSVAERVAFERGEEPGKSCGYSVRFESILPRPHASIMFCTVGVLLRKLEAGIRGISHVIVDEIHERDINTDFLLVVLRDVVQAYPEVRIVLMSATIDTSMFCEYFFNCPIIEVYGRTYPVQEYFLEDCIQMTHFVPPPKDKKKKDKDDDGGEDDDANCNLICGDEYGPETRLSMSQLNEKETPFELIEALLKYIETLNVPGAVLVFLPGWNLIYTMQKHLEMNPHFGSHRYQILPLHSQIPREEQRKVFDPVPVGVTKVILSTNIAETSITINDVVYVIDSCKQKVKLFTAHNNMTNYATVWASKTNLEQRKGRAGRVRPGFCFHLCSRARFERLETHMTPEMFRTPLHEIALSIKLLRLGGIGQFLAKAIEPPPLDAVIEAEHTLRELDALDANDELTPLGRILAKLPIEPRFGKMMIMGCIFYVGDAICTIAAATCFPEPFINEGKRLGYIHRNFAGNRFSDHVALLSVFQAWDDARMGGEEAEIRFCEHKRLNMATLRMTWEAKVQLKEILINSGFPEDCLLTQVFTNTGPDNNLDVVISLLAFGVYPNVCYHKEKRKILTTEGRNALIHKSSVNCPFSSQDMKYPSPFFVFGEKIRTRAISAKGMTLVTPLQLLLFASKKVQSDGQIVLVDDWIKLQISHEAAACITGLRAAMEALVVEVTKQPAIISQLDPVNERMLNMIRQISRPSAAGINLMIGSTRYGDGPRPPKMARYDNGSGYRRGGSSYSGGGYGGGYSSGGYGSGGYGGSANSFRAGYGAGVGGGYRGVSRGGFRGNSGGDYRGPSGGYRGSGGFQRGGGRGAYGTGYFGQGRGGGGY

SMILES	DHX9 Biochemical Max Inhibition [1]	IC50 [1] [nM]	IC50 [2, 6] [nM]	EC50 [4, 7] [nM]	IC50 ([2]; performed at Pharmaron) [nM]	EC50 ([4]; Taqman assay (*)) [nM]	EC50 [5, 8] [nM]	EC50 ([5]; SyBr assay (^+), read-out: DHX9 Cellular Target Engagement) [nM]	IC50 ([3]; Homo sapiens, LS-411N) [nM]	IC50 [3] [nM]
CCS(=O)(=O)Nc1cc(Cl)cc(NC(=O)c2cc(-c3ncc(N4CC(F)(F)C4)cc3F)n(C)c2)c1 [Example 517]	54.1	23.7	2220	16.8	–	–	–	–	135	–
Cc1sc(C(=O)Nc2cc(Cl)cc(NS(C)(=O)=O)c2)cc1-c1ncc(N2CC(C(F)(F)F)C2)cc1F [Example 477]	68	46.8	–	–	2520	24.2	–	–	–	80.2
Cc1cc(C(=O)Nc2cc(Cl)cc(NS(C)(=O)=O)c2)cn1-c1ncc(N2CCC(F)(F)C2)cc1F [Example 408]	63	41.6	8160	67.1	–	–	–	–	215	–
CS(=O)(=O)Nc1cc(Cl)cc(NC(=O)c2cnn(-c3ncccc3OCc3cc(F)cc(F)c3)c2)c1 [Example 187]	82.4%	3.2	–	–	–	–	50.4	–	–	–
CS(=O)(=O)Nc1cc(Cl)cc(NC(=O)c2cnn(-c3ncccc3OCc3cc(F)cc(F)c3)c2)c1 [Example 256]	70.1%	403	–	–	–	–	2030	–	–	–
Cc1cc(C(=O)Nc2cc(Cl)cc(NS(C)(=O)=O)c2)cn1-c1ccc(N(C)C2CCOC2)cn1 (stereo not shown) [Example 675]	71.2	4.1	–	–	> 10000	–	–	23.2	–	121
Cc1cc(C(=O)Nc2cc(Cl)cc(NS(C)(=O)=O)c2)cn1-c1ccc(N(C)C2CCOC2)cn1 (stereo not shown) [Example 674]	66.5	3.9	> 10000	–	–	–	–	–	–	–

Now from value to molecule, other results behind:

DHX9 Biochemical Max Inhibition [1]	IC50 [1] [nM]	IC50 [2, 6] [nM]	EC50 [4, 7] [nM]	IC50 ([2]; performed at Pharmaron) [nM]	EC50 ([4]; Taqman assay (*)) [nM]	EC50 [5, 8] [nM]	EC50 ([5]; SyBr assay (^+), read-out: DHX9 Cellular Target Engagement) [nM]	SMILES	IC50 ([3]; Homo sapiens, LS-411N) [nM]	IC50 [3] [nM]
67	22.9	> 10000	–	–	–	–	–	Cc1sc(C(=O)Nc2cc(Cl)cc(NS(C)(=O)=O)c2)cc1-c1ncccc1OC(C)c1cncc(F)c1 (stereo not shown) [Example 630]	–	–
64.4	31.2	4880	59.3	–	–	–	–	Cc1sc(C(=O)Nc2cc(Cl)cc(NS(C)(=O)=O)c2)cc1-c1ncccc1OC(C)c1cncc(F)c1 (single isomer, unassigned) [Example 631]	156	–
67.3	34.2	6780	57.6	–	–	–	–	Cc1sc(C(=O)Nc2cc(Cl)cc(NS(C)(=O)=O)c2)cc1-c1ncc(OC(C)C)cc1F [Example 455]	88.6	–
60.9	131	–	–	–	58.6	–	–	Cc1sc(C(=O)Nc2cc(Cl)cc(NS(C)(=O)=O)c2)cc1-c1ncc(N2CC(C(F)(F)F)C2)cc1F [Example 460, N-(3-chloro-5-(methylsulfonamido)phenyl)-4-(3-fluoro-5-(3-(trifluoromethyl)azetidin-1-yl)pyridin-2-yl)-5-methylthiophene-2-carboxamide]	–	221

— patent US20240316047A1, “INHIBITORS OF RNA HELICASE DHX9 AND USES THEREOF” (ACCENT THERAPEUTICS, INC., priority 2022, published 2024)
